Experimental data from article PMC5109486, “Computational Drug Target Screening through Protein Interaction Profiles” (Scientific Reports, 2016).
Like-named read-outs stand apart in the source and are kept apart here.

What was measured:
[1] = target: T1, hCOX-1 (Homo sapiens, UniProt P23219); assay: hCOX-1 activity, TMPD oxidation, human platelet microsomes, arachidonic acid substrate; format: biochemical; conditions: for inhibition at 25 µM: read-out: % enzymatic inhibition of hCOX-1 at 25 μM, compounds precipitated at higher concentrations
T1 construct: using arachidonic acid as substrate for hCOX-1 from human platelet microsomes; from tissue; host or cells: microsomes of human platelets isolated from buffy coats
T1 sequence (P23219 24-599): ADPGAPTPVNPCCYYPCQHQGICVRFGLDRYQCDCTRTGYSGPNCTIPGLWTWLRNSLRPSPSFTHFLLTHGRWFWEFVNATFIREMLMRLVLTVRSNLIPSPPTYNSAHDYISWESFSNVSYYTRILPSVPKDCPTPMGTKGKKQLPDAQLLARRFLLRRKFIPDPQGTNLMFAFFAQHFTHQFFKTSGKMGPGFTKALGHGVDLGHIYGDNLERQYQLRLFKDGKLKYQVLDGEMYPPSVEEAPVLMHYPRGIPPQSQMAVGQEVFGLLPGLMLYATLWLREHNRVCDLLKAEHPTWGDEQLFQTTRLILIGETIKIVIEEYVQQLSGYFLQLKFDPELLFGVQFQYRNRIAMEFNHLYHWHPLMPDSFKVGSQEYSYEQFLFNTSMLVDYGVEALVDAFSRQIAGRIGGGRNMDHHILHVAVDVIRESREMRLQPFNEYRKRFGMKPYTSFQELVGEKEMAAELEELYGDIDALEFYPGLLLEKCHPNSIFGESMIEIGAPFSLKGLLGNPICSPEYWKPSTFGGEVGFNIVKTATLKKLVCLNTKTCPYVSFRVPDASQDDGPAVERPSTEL
Procedure: Human platelets were isolated by centrifugation from buffy coats obtained from the Centro de Transfusion de Galicia (Santiago de Compostela, Spain) and prepared as described.
The upper layer obtained in this centrifugation, containing platelet rich plasma, was gently removed and centrifuged at 850 g for 20 min at 4 °C in a centrifuge (J2-MI, Beckman Instruments, Inc., Palo Alto, California, USA). The platelet pellet was recovered, resuspended with washing buffer, and centrifuged again at 850 g for 20 min at 4 °C. To prepare human platelet microsomes, the resultant platelet pellet of the above centrifugation was resuspended in 7 mL of sodium phosphate buffer (10 mM, pH 7.4), sonicated at 50 W for 50 s (5 pulses of 10 s), and centrifuged at 850 g for 20 min at 4 °C in a refrigerated centrifuge. The pellet was discarded and the supernatant was subsequently centrifuged at 10 000 g for 10 min at 4 °C in the same centrifuge. The pellet obtained in this centrifugation was discarded and the supernatant was finally centrifuged at 100 000 g for 1 h at 4 °C in an ultracentrifuge (Beckman Instruments, Inc., Palo Alto, California, USA).
The biological evaluation of the test drugs on hCOX-1 activity (bisdioxygenase and peroxidase reactions) was investigated by measuring their effects on the oxidation of N, N, N’, N’-tetramethyl-p-phenylenediamine (TMPD) to N, N, N’, N’-tetramethyl-p-phenylene-diimine, using arachidonic acid as substrate for hCOX-1 from human platelet microsomes (obtained as described in the above paragraph). The formation of N, N, N’, N’-tetramethyl-p-phenylenediimine (a coloured compound) from N, N, N’, N’-tetramethyl-p-phenylenediamine catalyzed by COX can be detected spectrophotometrically at 600 nm. In this study, hCOX activity was evaluated using a spectrophotometric method. Briefly, 0.1 mL of Tris–HCl buffer (100 mM, pH 8) containing […], […], various concentrations of the test drugs, and appropriate amounts of hCOX-1 (0.08 A600 U/min) were incubated for short periods of time (3–5 min) to avoid a notable loss of COX activity at 37 °C in a flat-bottom 96-well microtest plate (BD Biosciences, Franklin Lakes, NJ, USA) placed in the dark multimode microplate reader chamber. After this incubation period, the reaction was started by adding (final concentration) […] and the formation of N, N,N’,N’-tetramethyl-p-phenylenediimine from TMPD, i.e., the increase in absorbance at 600 nm was measured at 37 °C in a multi-mode microplate reader (Fluostar Optima, BMG Labtech GmbH, Offenburg, Germany) for 25 s, aperiod in which the absorbance increased linearly from the beginning. The specific absorbance (used to obtain the final results) was calculated after subtraction of the background absorbance generated in wells containing a blank solution, i.e., all components except the COX isoform, which were replaced by a Tris–HCl buffer solution.
Control experiments were carried out simultaneously by replacing the test drugs (new compounds and reference inhibitors) with appropriate dilutions of the vehicles. In addition, the possible capacity of the above test drugs to modify the absorbance of the reaction mixture due to non-enzymatic inhibition (e.g., for directly reacting with TMPD) was determined by adding these drugs to solutions containing only TMPD in a Tris–HCl buffer solution.

[2] = target: T2, hMAO-B (Homo sapiens, UniProt P27338); assay: hMAO-B enzymatic inhibition, Amplex Red MAO assay (H2O2 from p-tyramine); format: biochemical
T2 construct: purchased Sigma-Aldrich; host or cells: insect cells (BTI-TN-5B1-4) infected with recombinant baculovirus; microsomal preparation
T2 sequence (P27338 1-520): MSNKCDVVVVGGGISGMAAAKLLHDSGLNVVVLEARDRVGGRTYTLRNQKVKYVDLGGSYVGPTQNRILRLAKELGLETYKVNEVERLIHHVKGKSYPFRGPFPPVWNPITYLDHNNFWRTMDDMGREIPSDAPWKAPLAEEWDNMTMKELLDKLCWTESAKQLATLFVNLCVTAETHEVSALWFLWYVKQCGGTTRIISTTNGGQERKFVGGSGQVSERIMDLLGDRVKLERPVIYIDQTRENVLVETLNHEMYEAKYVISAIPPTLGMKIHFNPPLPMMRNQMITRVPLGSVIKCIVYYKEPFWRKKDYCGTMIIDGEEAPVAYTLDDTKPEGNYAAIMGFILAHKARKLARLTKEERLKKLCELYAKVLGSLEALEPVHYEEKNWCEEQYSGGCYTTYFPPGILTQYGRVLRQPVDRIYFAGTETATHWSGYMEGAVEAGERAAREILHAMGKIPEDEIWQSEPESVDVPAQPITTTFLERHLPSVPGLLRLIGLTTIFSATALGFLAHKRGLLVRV
Source text: (§1) The biological evaluation on hMAO activity was investigated by measuring effects on the production of hydrogen peroxide (H2O2) from p-tyramine, using the Amplex® Red MAO assay kit and microsomal isoforms prepared from insect cells (BTI-TN-5B1-4) infected with recombinant baculovirus containing cDNA inserts for hMAO-A and hMAO-B. The production of H2O2 catalysed by the MAO isoforms was detected using 10-acetyl-3,7-dihydroxyphenoxazine (Amplex® Red reagent), a non fluorescent and highly sensitive probe that reacts with H2O2 in the presence of horseradish peroxidase to produce a fluorescent product, resorufin.
The selected compounds were dissolved in DMSO (Sigma-Aldrich, Alcobendas, Madrid, Spain) to prepare 10 mM stock solutions, which were kept for storage at −20 °C. Percentage of DMSO used in the experiments was never higher than 1%. Human recombinant MAO isoforms (native enzymes), used in the experiments, were purchased from Sigma-Aldrich (Alcobendas, Madrid, Spain). Test compounds were acquired from Sigma-Aldrich and Vitro S.A. (Madrid, Spain).
After this incubation period, the reaction was started by adding (final concentrations) 200 μM Amplex® Red reagent, 1 U/mL horseradish peroxidase and 1 mMp-tyramine. […] Control experiments were carried out simultaneously by replacing the test drugs (new compounds and reference inhibitor) with appropriate dilutions of the vehicles. In addition, the possible capacity of the above test drugs to modify the fluorescence generated in the reaction mixture due to non-enzymatic inhibition (e.g., for directly reacting with Amplex® Red reagent) was determined by adding these drugs to solutions containing only the Amplex® Red reagent in a sodium phosphate buffer. To determine the kinetic parameters of hMAO (Km and Vmax), the corresponding enzymatic activity was evaluated (under the experimental conditions described above) in the presence of a number (a wide range) of p-tyramine concentrations.
The specific fluorescence emission (used to obtain the final results) was calculated after subtraction of the background activity, which was determined from wells containing all components except the hMAO, which were replaced by a sodium phosphate buffer solution.

[3] = target: T3, hMAO-A (Homo sapiens, UniProt P21397); assay: hMAO-A enzymatic inhibition, Amplex Red MAO assay (H2O2 from p-tyramine); format: biochemical
T3 construct: purchased Sigma-Aldrich; host or cells: insect cells (BTI-TN-5B1-4) infected with recombinant baculovirus; microsomal preparation
T3 sequence (P21397 1-527): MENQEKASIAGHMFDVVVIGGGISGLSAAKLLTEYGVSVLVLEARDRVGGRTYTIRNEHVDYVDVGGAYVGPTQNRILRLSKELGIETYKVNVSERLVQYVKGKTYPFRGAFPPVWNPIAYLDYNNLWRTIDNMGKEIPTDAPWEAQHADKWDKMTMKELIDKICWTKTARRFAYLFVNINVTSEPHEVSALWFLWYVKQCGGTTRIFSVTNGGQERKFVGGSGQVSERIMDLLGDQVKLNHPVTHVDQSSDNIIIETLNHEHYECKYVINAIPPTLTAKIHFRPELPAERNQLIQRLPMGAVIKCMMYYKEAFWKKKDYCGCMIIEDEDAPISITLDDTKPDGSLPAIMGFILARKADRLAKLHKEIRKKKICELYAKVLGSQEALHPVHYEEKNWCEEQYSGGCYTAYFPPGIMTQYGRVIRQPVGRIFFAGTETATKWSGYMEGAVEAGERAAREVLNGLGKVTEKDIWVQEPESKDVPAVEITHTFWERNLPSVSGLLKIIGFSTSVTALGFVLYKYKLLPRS
Source text: as §1, with “resorufin. […]” for “resorufin.”
After this incubation period, the reaction was started by adding (final concentrations) 200 μM Amplex® Red reagent, 1 U/mL horseradish peroxidase and 1 mMp-tyramine. […] In addition, the possible capacity of the above test drugs to modify the fluorescence generated in the reaction mixture due to non-enzymatic inhibition (e.g., for directly reacting with Amplex® Red reagent) was determined by adding these drugs to solutions containing only the Amplex® Red reagent in a sodium phosphate buffer. To determine the kinetic parameters of hMAO (Km and Vmax), the corresponding enzymatic activity was evaluated (under the experimental conditions described above) in the presence of a number (a wide range) of p-tyramine concentrations. […]

[4] = system: hMAO-B; design: method as in PMID 19948168, PMID 14965331; conditions: cited from earlier work
[5] = Table 2, mean ± S.E.M., n = 3, control assays, read-out: IC50 hCOX-1
[6] = Table 3, mean ± S.E.M., n = 3, rational assays selected by the modeling, read-out: IC50 hCOX-1
[7] = Table 2, mean ± S.E.M., n = 3, rational assays selected by the modeling, read-out: IC50 hMAO-B
[8] = highest concentration tested 100 μM, read-out: IC50 hMAO-B (rounded)
[9] = Table 3, mean ± S.E.M., n = 3, control assays, read-out: IC50 hMAO-B
[10] = highest concentration tested 100 μM, read-out: IC50 hCOX-1 (rounded)

Compound COc1ccc(-c2nc(C(=O)N3CCN(C)CC3)sc2-c2ccc(OC)cc2)cc1 [FR122047] has an IC50 [1, 5] of 0.094 ± 0.006 µM and an IC50 [1, 6] of 0.094 ± 0.006 µM.

For COc1ccc2nc(NC(=O)Nc3ccccc3)sc2c1 [Frentizole], the IC50 [2, 7] was > 100 µM, the IC50 [2, 8] was > 100 µM and the IC50 ([3]; Table 2, mean ± S.E.M., n = 3, control assays, read-out: IC50 hMAO-A) was > 100 µM. The IC50 [1, 5] was > 100 µM.

For Cc1cccc(-c2n[nH]cc2-c2ccc3ncccc3n2)n1 [GW786460X], the IC50 [2, 9] was > 100 µM, the IC50 [1, 6] was > 100 µM and the IC50 [1, 10] was > 100 µM.

With O=Nc1c(-c2c(O)[nH]c3ccccc23)[nH]c2ccccc12 [Indirubin-3′-monoxime, indirubin-3′-monoxime] the IC50 [2, 9] was > 100 µM and the inhibition at 25 µM [1] was 28%.

For CS(=O)(=O)CCNCc1ccc(-c2ccc3ncnc(Nc4ccc(OCc5cccc(F)c5)c(Cl)c4)c3c2)o1 [Lapatinib, lapatinib], the IC50 [2, 9] was > 100 µM and the inhibition at 25 µM [1] was 19.5%.

For COc1cc(/C=C/C(=O)N2CCC=CC2=O)cc(OC)c1OC [Piperlongumine, piperlongumine], the IC50 [2, 7] was 65.1 ± 2.99 µM, the IC50 [2, 8] was 65 µM and the IC50 [3] was > 100 µM. For the same compound, the IC50 [1] was > 100 µM.

For O=C1NC(=O)C(c2c[nH]c3ccccc23)=C1c1c[nH]c2ccccc12 [RO-316233], the IC50 [2, 9] was > 100 µM, the IC50 [1, 6] was 25.4 ± 3.8 µM and the IC50 [1, 10] was 25 µM.

In the case of Oc1ccc(-c2nc(-c3ccncc3)c(-c3ccc(F)cc3)[nH]2)cc1 [SB-202190], the IC50 [2, 9] is reported as > 100 µM, the IC50 [1, 6] is reported as 23.6 ± 3.53 µM and the IC50 [1, 10] is reported as 24 µM.

In the case of NS(=O)(=O)Cc1noc2ccccc12 [zonisamide], the IC50 ([4]; read-out: IC50 of zonisamide (MAO-B)) is listed as ~25 µM and the Ki ([4]; read-out: Ki of zonisamide (MAO-B)) is listed as 3.1 µM.
